Test: xn = mol fraction of the nth substance listed
Conditions: 101 kPa, Liquid; for speed of sound: sound velocity cell; for mass density: Vibrating tube method

CC(=O)[O-].[NH3+]CCO [2-hydroxyethylammonium acetate] + O
Conditions | mass density [kg/m3] | speed of sound [m/s]
305.65 K, x1 = 0.051 | – | 1689.8
305.65 K, x1 = 0.1019 | – | 1763.6
305.65 K, x1 = 0.1963 | – | 1817.3
305.65 K, x1 = 0.2894 | – | 1823.5
305.65 K, x1 = 0.3959 | – | 1811.5
305.65 K, x1 = 0.5016 | – | 1799.8
305.65 K, x1 = 0.5821 | – | 1797
305.65 K, x1 = 0.6837 | – | 1788.2
305.65 K, x1 = 0.7763 | – | 1786.6
305.65 K, x1 = 0.8761 | – | 1776.6
305.65 K, x1 = 0.9137 | – | 1778.1
305.65 K, x1 = 1 | – | 1773.4
308.15 K, x1 = 0.051 | 1047.04 | 1690.8
308.15 K, x1 = 0.1019 | 1076 | 1762.3
308.15 K, x1 = 0.1963 | 1106.1 | 1814
308.15 K, x1 = 0.2894 | 1120.43 | 1819.3
308.15 K, x1 = 0.3959 | 1129.69 | 1806.9
308.15 K, x1 = 0.5016 | 1134.77 | 1795
308.15 K, x1 = 0.5821 | 1137.3 | 1792.1
308.15 K, x1 = 0.6837 | 1139.14 | 1783.2
308.15 K, x1 = 0.7763 | 1140.95 | 1781.4
308.15 K, x1 = 0.8761 | 1142.23 | 1771.3
308.15 K, x1 = 0.9137 | 1142.59 | 1772.8
308.15 K, x1 = 1 | 1143.39 | 1767.9
310.65 K, x1 = 0.051 | 1045.86 | 1691.5
310.65 K, x1 = 0.1019 | 1074.78 | 1760.8
310.65 K, x1 = 0.1963 | 1104.76 | 1810.6
310.65 K, x1 = 0.2894 | 1119.06 | 1815.2
310.65 K, x1 = 0.3959 | 1128.3 | 1802.4
310.65 K, x1 = 0.5016 | 1133.38 | 1790.2
310.65 K, x1 = 0.5821 | 1135.91 | 1787.2
310.65 K, x1 = 0.6837 | 1137.76 | 1778.2
310.65 K, x1 = 0.7763 | 1139.58 | 1776.3
310.65 K, x1 = 0.8761 | 1140.87 | 1766
310.65 K, x1 = 0.9137 | 1141.2 | 1767.5
310.65 K, x1 = 1 | 1141.96 | 1762.5
313.15 K, x1 = 0.051 | 1044.65 | 1692
313.15 K, x1 = 0.1019 | 1073.54 | 1759.2
313.15 K, x1 = 0.1963 | 1103.42 | 1807.1
313.15 K, x1 = 0.2894 | 1117.69 | 1811.1
313.15 K, x1 = 0.3959 | 1126.9 | 1797.7
313.15 K, x1 = 0.5016 | 1131.98 | 1785.3
313.15 K, x1 = 0.5821 | 1134.53 | 1782.3
313.15 K, x1 = 0.6837 | 1136.37 | 1773.2
313.15 K, x1 = 0.7763 | 1138.21 | 1771.3
313.15 K, x1 = 0.8761 | 1139.5 | 1760.8
313.15 K, x1 = 0.9137 | 1139.84 | 1762.3
313.15 K, x1 = 1 | 1140.55 | 1757.2
315.15 K, x1 = 0.051 | 1043.45 | –
315.15 K, x1 = 0.1019 | 1072.29 | –
315.15 K, x1 = 0.1963 | 1102.07 | –
315.15 K, x1 = 0.2894 | 1116.31 | –
315.15 K, x1 = 0.3959 | 1125.5 | –
315.15 K, x1 = 0.5016 | 1130.58 | –
315.15 K, x1 = 0.5821 | 1133.13 | –
315.15 K, x1 = 0.6837 | 1134.98 | –
315.15 K, x1 = 0.7763 | 1136.83 | –
315.15 K, x1 = 0.8761 | 1138.14 | –
315.15 K, x1 = 0.9137 | 1138.48 | –
315.15 K, x1 = 1 | 1139.18 | –
315.65 K, x1 = 0.051 | – | 1692.3
315.65 K, x1 = 0.1019 | – | 1757.5
315.65 K, x1 = 0.1963 | – | 1803.5
315.65 K, x1 = 0.2894 | – | 1806.9
315.65 K, x1 = 0.3959 | – | 1793.1
315.65 K, x1 = 0.5016 | – | 1780.5
315.65 K, x1 = 0.5821 | – | 1777.4
315.65 K, x1 = 0.6837 | – | 1768.2
315.65 K, x1 = 0.7763 | – | 1766.2
315.65 K, x1 = 0.8761 | – | 1755.7
315.65 K, x1 = 0.9137 | – | 1757.1
315.65 K, x1 = 1 | – | 1751.9
318.15 K, x1 = 0.051 | 1042.25 | 1692.3
318.15 K, x1 = 0.1019 | 1071.02 | 1755.5
318.15 K, x1 = 0.1963 | 1100.71 | 1799.9
318.15 K, x1 = 0.2894 | 1114.92 | 1802.6
318.15 K, x1 = 0.3959 | 1124.1 | 1788.4
318.15 K, x1 = 0.5016 | 1129.18 | 1775.6
318.15 K, x1 = 0.5821 | 1131.74 | 1772.5
318.15 K, x1 = 0.6837 | 1133.59 | 1763.2
318.15 K, x1 = 0.7763 | 1135.45 | 1761.2
318.15 K, x1 = 0.8761 | 1136.76 | 1750.5
318.15 K, x1 = 0.9137 | 1137.11 | 1751.9
318.15 K, x1 = 1 | 1137.82 | 1746.5
320.65 K, x1 = 0.051 | 1041.08 | 1692.2
320.65 K, x1 = 0.1019 | 1069.74 | 1753.5
320.65 K, x1 = 0.1963 | 1099.34 | 1796.1
320.65 K, x1 = 0.2894 | 1113.53 | 1798.2
320.65 K, x1 = 0.3959 | 1122.69 | 1783.6
320.65 K, x1 = 0.5016 | 1127.77 | 1770.7
320.65 K, x1 = 0.5821 | 1130.35 | 1767.6
320.65 K, x1 = 0.6837 | 1132.19 | 1758.2
320.65 K, x1 = 0.7763 | 1134.06 | 1756.1
320.65 K, x1 = 0.8761 | 1135.38 | 1745.3
320.65 K, x1 = 0.9137 | 1135.73 | 1746.7
320.65 K, x1 = 1 | 1136.45 | 1741.3
323.15 K, x1 = 0.051 | 1040.15 | 1691.8
323.15 K, x1 = 0.1019 | 1068.47 | 1751.2
323.15 K, x1 = 0.1963 | 1097.97 | 1792.3
323.15 K, x1 = 0.2894 | 1112.14 | 1793.9
323.15 K, x1 = 0.3959 | 1121.29 | 1778.9
323.15 K, x1 = 0.5016 | 1126.36 | 1765.9
323.15 K, x1 = 0.5821 | 1128.95 | 1762.8
323.15 K, x1 = 0.6837 | 1130.79 | 1753.3
323.15 K, x1 = 0.7763 | 1132.67 | 1751
323.15 K, x1 = 0.8761 | 1134 | 1740.2
323.15 K, x1 = 0.9137 | 1134.36 | 1741.5
323.15 K, x1 = 1 | 1135.08 | 1736
